# Reference: publication PMC10721329, “Quisinostat is a brain-penetrant radiosensitizer in glioblastoma” (JCI Insight, 2023)
# “And” between values parts separate entries of the source, which are not always exact repeats. Identical values can stand only once. Like-named read-outs stand apart in the source and are kept apart here.
# Columns and labels:
# [1] = Stability in human brain homogenate at 37°C; type: in vitro ADME; details: for %stability in human brain homogenate, mean / stability in human brain homogenate, [QST], % of control: 37 C; for stability in human brain homogenate, [QST], % of control: single data points
# Protocol: Hydroxamic acid–based compounds have been reported to display poor stability and high plasma clearance due to the presence of arylesterases and carboxylesterases in rodent blood ([34]). Therefore, we measured the stability of QST in mouse plasma and brain to determine whether drug degradation occurred during our sample preparations and equilibrium dialyses for the determination of unbound drug level (performed at 37°C). […] QST degradation was also observed in mouse brain homogenate (Figure 6B). However, perfusion of mice before brain collection prevented rapid drug degradation in the brain matrix. […] Degradation of QST can also be constrained if plasma and brain samples are processed at 4°C (Supplemental Figure 4A). All subsequent sample preparations were therefore performed on ice-cold baths to avoid degradation of QST in our PK analyses. […] The observed stability is probably due to the absence of esterases in human matrices, which are responsible for degradation of QST ([34]). Because we employed QST in several in vitro studies (Figures 1–4), the stability of the molecule was also tested in the cell media used to culture GSCs (neurobasal medium; see Methods).
# Stability Study in Mouse Plasma, Mouse Brain, Human Plasma, Human Brain, and Neural […]
# The stability of QST was determined in BALB/c mouse plasma, male nude athymic perfused and nonperfused mouse brain homogenate (1:9 w/v of PBS; pH 7.4), human brain (obtained from VRL Eurofins) homogenate (1:4 w/v of PBS; pH 7.4), pooled human plasma (Innovative Research), and neurobasal media. QST stock solutions (1 mM) were prepared in acetonitrile, subsequently diluted in a 40% methanol mixture, and added t o the matrices to make final concentrations of 100 nM or 10 nM. Then 50 or 30 µL of either plasma or brain homogenate containing QST were aliquoted into 1.5-mL microcentrifuge tubes (Eppendorf) and were incubated at either 4 °C or 37 °C for 0, 2, 4, 6, 12, or 24 hours (n = 3 at each time point). […]
# Plasma and brain […]
# homogenate samples were stored at −80 °C until LC-MS/MS analysis. […]
# [2] = Total and unbound QST in tumor and contralateral brain, short-term treatment, orthotopic GB126 PDX; type: in vivo
# Protocol: To establish the PK-PD correlation and efficacy in an orthotopic patient-derived xenograft (PDX) model of GBM, we implanted GB126 cells in the brains of athymic nude mice and began treatment once the tumors started growing exponentially. Tumor-bearing mice were treated with QST (10 mg/kg), with or without IR, on a MWF schedule (Figure 7A). As described above, IR was delivered locally to the brain in 2-Gy fractions 2 hours after being dosed with vehicle solution or QST, for a cumulative delivery of 6 Gy. To assess acute PD effects and drug levels after short-term QST treatment (1 week, 3 doses total), 10 mice from each experimental cohort were sacrificed 3 hours after receiving the third dose of vehicle solution or QST (Figure 7A). Plasma, tumors, and brain tissue contralateral to the tumors were collected and processed for PK and PD analyses. […] To assess PD modulation, we homogenized brain tumors to obtain whole-tissue protein lysates from each mouse and quantified changes in histone H3 acetylation levels using immunoblotting.
# QST concentrations in specimens were measured using reverse-phase LC on the AB SCIEX QTRAP6500+ LC-MS/MS system by operating electrospray in the positive ion mode. For liquid chromatographic separation, gradient elution was performed using a Phenomenex Kinetex F5 100 Å column (100 × 2.1 mm, 2.6 μm). The initial composition of the mobile phase was 70% phase A (0.1% formic acid in water) and 30% phase B (0.1% formic acid in 1:1 acetonitrile/methanol) with a 0.35 mL/min flow rate. […] The total run time was 3.5 minutes. The internal standard used in this study was D8-infigratinib. […] LC-MS/MS analysis was performed using an Analyst 1.7 Chromatographic Data System. See Supplemental Methods for detailed PK experiments.
# Gy on MWF for a total of 6 Gy in the first week of treatment. Treatment groups included vehicle (50% PEG-3000), QST (10 mg/kg) alone, 6 Gy whole-brain IR treatment with vehicle, and 6 Gy whole-brain IR treatment with 10 mg/kg QST. QST was administered to mice through intraperitoneal injections two hours prior to whole-brain radiation treatment. […]
# For short-term PK-PD correlation studies, tumor-bearing mice were randomized into groups and underwent a single week of treatment with QST (10 mg/kg) on MWF. For mice receiving IR treatment with or without QST, mice were treated with 2 Gy on MWF for a total of 6 Gy. QST was administered to mice through intraperitoneal injections 2 hours before whole-brain radiation treatment. On the third and last day of treatment, mice were sacrificed and processed for PD and PK analyses 3 hours after administration of QST or vehicle. For PD analyses, the mice were euthanized with isoflurane, and the tumors were dissected out of the brain and flash-frozen for subsequent analysis through Western blotting and RNA sequencing.
# Tissue from the hemisphere contralateral to the tumor was also collected as a normal brain/nontumor reference sample. For PK analyses, the mice were anesthetized with isoflurane, and at least 300 μL of blood was drawn from the right ventricle of the heart. The blood was collected in tubes containing 10 μL of 0.1 M KOH in EDTA to prevent blood coagulation. Blood samples were immediately centrifuged at 3000 rpm for 10 minutes at 4 °C to allow separation of plasma. After collection of the blood, the tumor was dissected out of the brain and flash -frozen.
# [3] = acute treated tumors, individual mice
compound,measurement,setting,value
"Cn1cc(CNCC2CCN(c3ncc(C(=O)NO)cn3)CC2)c2ccccc21 [QST, quisinostat]","%stability in human brain homogenate, mean","[1]; 10 nM, 0 hrs",100 % of control
same,"stability in human brain homogenate, [QST], % of control","[1]; 10 nM, 0 hrs",101.7 % of control and 98.5 % of control and 98.3 % of control
same,"%stability in human brain homogenate, mean","[1]; 10 nM, 2 hrs",90.6 % of control
same,"stability in human brain homogenate, [QST], % of control","[1]; 10 nM, 2 hrs",87.5 % of control and 89.1 % of control and 95.1 % of control
same,"%stability in human brain homogenate, mean","[1]; 10 nM, 6 hrs",94.8 % of control
same,"stability in human brain homogenate, [QST], % of control","[1]; 10 nM, 6 hrs",95.6 % of control and 93.7 % of control and 94.9 % of control
same,"%stability in human brain homogenate, mean","[1]; 10 nM, 24 hrs",82.9 % of control
same,"stability in human brain homogenate, [QST], % of control","[1]; 10 nM, 24 hrs",83.1 % of control and 81 % of control and 84.6 % of control
same,"%stability in human brain homogenate, mean","[1]; 100 nM, 0 hrs",100 % of control
same,"stability in human brain homogenate, [QST], % of control","[1]; 100 nM, 0 hrs",98.8 % of control and 102.5 % of control and 98.7 % of control
same,"%stability in human brain homogenate, mean","[1]; 100 nM, 2 hrs",89.0 % of control
same,"stability in human brain homogenate, [QST], % of control","[1]; 100 nM, 2 hrs",90.7 % of control and 89.5 % of control and 86.8 % of control
same,"%stability in human brain homogenate, mean","[1]; 100 nM, 6 hrs",92.7 % of control
same,"stability in human brain homogenate, [QST], % of control","[1]; 100 nM, 6 hrs",93.9 % of control and 90.6 % of control and 93.7 % of control
same,"%stability in human brain homogenate, mean","[1]; 100 nM, 24 hrs",84.4 % of control
same,"stability in human brain homogenate, [QST], % of control","[1]; 100 nM, 24 hrs",81.6 % of control and 84.2 % of control and 87.3 % of control
same,stability in human brain homogenate,[1]; 37°C,completely stable
same,"UNBOUND [QST], Brain","[2]; acute treated tumor-bearing mice, individual mice",1.55 nM and 0.424 nM and 0.84 nM and 2.425 nM and 1.0975 nM
same,concentration at 3 h,"[2]; acute treated tumor-bearing mice, individual mice, read-out: TOTAL [QST], brain",0.031 µM and 0.00848 µM and 0.0485 µM and 0.02195 µM
same,"TOTAL [QST], tumor",[2]; [3],634.32 nM and 1029.61 nM and 23.89 nM and 646.61 nM and 605.65 nM
same,"UNBOUND [QST], Tumor",[2]; [3],31.716 nM and 51.4805 nM and 1.1945 nM and 32.3305 nM and 30.2825 nM
same,concentration at 3 h,"[2]; athymic nude, mouse, brain tissue contralateral to the tumor, intraperitoneal, 10 mg/kg, acute treated tumor-bearing mice, mean, read-out: Total QST, brain, mean",0.0254 µM
same,concentration at 3 h,"[2]; athymic nude, mouse, brain tissue contralateral to the tumor, intraperitoneal, 10 mg/kg, acute treated tumor-bearing mice, mean, read-out: Unbound QST, brain, mean",0.00127 µM
same,concentration at 3 h,"[2]; athymic nude, mouse, brain tumor (orthotopic GB126 xenograft), intraperitoneal, 10 mg/kg, acute treated tumors, mean, read-out: Total QST, tumor, mean",0.588 µM
same,concentration at 3 h,"[2]; athymic nude, mouse, brain tumor (orthotopic GB126 xenograft), intraperitoneal, 10 mg/kg, acute treated tumors, mean, read-out: Unbound QST, tumor, mean",0.0294 µM
same,concentration at 3 h,"[2]; athymic nude, mouse, in vivo, 10 mg/kg, acute treated tumor-bearing mice, individual mice, read-out: TOTAL [QST], brain",0.0168 µM
